Test results taken from the OligoGym collection.
HELM strings list units from the 5' end as sugar, base in round brackets, then linkage (d deoxyribose, r ribose, m 2'-O-methyl, p phosphodiester). Strings are as the collection lists them, not checked against the first reports. ss, as = sense and antisense strand; [lna] = locked nucleic acid (LNA); [una] = unlocked nucleic acid; [hna] = hexitol nucleic acid; [s4r] = 4'-thioribose; [fl2r] = 2'-fluoro

Conditions: siRNA
Further: test system not given here.

Substance	target mRNA knockdown
RNA1{r(G)p.r(A)p.r(C)p.r(G)p.[hna](U)p.r(A)p.r(A)p.[hna](A)p.r(C)p.r(G)p.[hna](G)p.r(C)p.r(C)p.[hna](A)p.r(C)p.r(A)p.r(A)p.r(G)p.r(U)p.[hna](U)p.d(T)}|RNA2{r(A)p.[hna](C)p.r(U)p.r(U)p.r(G)p.r(U)p.r(G)p.r(G)p.r(C)p.r(C)p.r(G)p.r(U)p.r(U)p.r(U)p.r(A)p.r(C)p.r(G)p.[hna](U)p.[hna](C)p.[hna](G)p.d(T)}$$$RNA1{StrandType:ss}|RNA2{StrandType:as}$	11.9%
RNA1{r(G)p.r(A)p.r(C)p.r(G)p.r(U)p.r(A)p.r(A)p.r(A)p.r(C)p.r(G)p.r(G)p.r(C)p.r(C)p.r(A)p.r(C)p.r(A)p.r(A)p.r(G)p.r(U)p.r(U)p.r(C)}|RNA2{r(A)p.m(C)p.r(U)p.r(U)p.r(G)p.r(U)p.r(G)p.r(G)p.r(C)p.r(C)p.r(G)p.r(U)p.r(U)p.r(U)p.r(A)p.r(C)p.r(G)p.r(U)p.r(C)p.r(G)p.r(C)}$$$RNA1{StrandType:ss}|RNA2{StrandType:as}$	76%
RNA1{r(G)p.r(U)p.r(A)p.r(U)p.r(G)p.r(A)p.r(C)p.r(C)p.r(G)p.r(A)p.r(C)p.r(U)p.r(A)p.r(C)p.r(G)p.r(C)p.r(G)p.r(U)p.r(A)p.r(T)p.r(T)}|RNA2{r(U)p.r(U)p.r(C)p.r(A)p.r(G)p.r(U)p.r(G)p.r(U)p.r(G)p.r(A)p.r(U)p.r(G)p.r(A)p.r(C)p.r(A)p.r(C)p.r(U)p.r(U)p.r(G)p.[una](T)p.[una](T)}$$$RNA1{StrandType:ss}|RNA2{StrandType:as}$	81%
RNA1{r(A)p.r(U)p.m(C)p.r(A)p.m(C)p.r(A)p.r(A)p.r(A)p.r(C)p.r(C)p.r(C)p.r(C)p.m(U)p.r(A)p.r(G)p.r(A)p.r(G)p.r(G)p.r(G)p.r(T)p.r(T)}|RNA2{r(C)p.r(C)p.r(C)p.r(U)p.r(C)p.m(U)p.r(A)p.m(G)p.r(G)p.r(G)p.r(G)p.r(U)p.r(U)p.r(U)p.r(G)p.m(U)p.r(G)p.r(A)p.r(U)p.r(T)p.r(T)}$$$RNA1{StrandType:ss}|RNA2{StrandType:as}$	27%
RNA1{r(G)p.r(A)p.r(C)p.r(G)p.r(U)p.r(A)p.r(A)p.r(A)p.r(C)p.r(G)p.r(G)p.r(C)p.r(C)p.r(A)p.r(C)p.r(A)p.r(A)p.r(G)p.r(U)p.r(U)p.r(T)}|RNA2{r(A)p.r(C)p.r(U)p.r(U)p.r(G)p.r(U)p.r(G)p.[hna](G)p.r(C)p.r(C)p.r(G)p.r(U)p.r(U)p.[hna](U)p.r(A)p.r(C)p.r(G)p.[hna](U)p.[hna](C)p.[hna](G)p.r(T)}$$$RNA1{StrandType:ss}|RNA2{StrandType:as}$	87%
RNA1{r(G)p.r(A)p.r(C)p.r(G)p.[hna](U)p.r(A)p.r(A)p.[hna](A)p.r(C)p.r(G)p.[hna](G)p.r(C)p.r(C)p.[hna](A)p.r(C)p.r(A)p.r(A)p.r(G)p.[hna](U)p.[hna](U)p.d(T)}|RNA2{r(A)p.r(C)p.[hna](U)p.r(U)p.r(G)p.r(U)p.r(G)p.r(G)p.r(C)p.r(C)p.r(G)p.r(U)p.r(U)p.r(U)p.r(A)p.r(C)p.r(G)p.[hna](U)p.[hna](C)p.[hna](G)p.d(T)}$$$RNA1{StrandType:ss}|RNA2{StrandType:as}$	51.4%
RNA1{r(G)p.r(A)p.r(A)p.r(G)p.r(A)p.[fl2r](U)p.r(A)p.r(G)p.r(G)p.r(A)p.r(A)p.r(G)p.r(G)p.r(G)p.r(G)p.[fl2r](C)p.[fl2r](U)p.[fl2r](U)p.[fl2r](C)p.r(T)p.r(T)}|RNA2{r(G)p.r(A)p.r(A)p.r(G)p.r(C)p.r(C)p.r(C)p.r(C)p.r(U)p.r(U)p.r(C)p.r(C)p.r(U)p.r(A)p.r(U)p.r(C)p.r(U)p.r(U)p.r(C)p.r(T)p.r(T)}$$$RNA1{StrandType:ss}|RNA2{StrandType:as}$	45%
RNA1{[fl2r](A)p.r(C)p.[fl2r](G)p.r(G)p.[fl2r](C)p.r(U)p.[fl2r](C)p.r(G)p.[fl2r](C)p.r(U)p.[fl2r](A)p.r(C)p.[fl2r](C)p.r(C)p.[fl2r](U)p.r(C)p.[fl2r](G)p.r(A)p.r(C)p.r(T)p.r(T)}|RNA2{r(G)p.r(U)p.r(C)p.r(G)p.r(A)p.r(G)p.r(G)p.r(G)p.r(U)p.r(A)p.r(G)p.r(C)p.r(G)p.r(A)p.r(G)p.r(C)p.r(C)p.r(G)p.r(U)p.r(T)p.r(T)}$$$RNA1{StrandType:ss}|RNA2{StrandType:as}$	72%
RNA1{[s4r](C)p.[s4r](G)p.[s4r](U)p.[s4r](A)p.r(C)p.r(G)p.r(C)p.r(G)p.r(G)p.r(A)p.r(A)p.r(U)p.r(A)p.r(C)p.r(U)p.r(U)p.r(C)p.r(G)p.r(A)p.r(T)p.r(T)}|RNA2{r(U)p.r(C)p.r(G)p.r(A)p.r(A)p.r(G)p.r(U)p.r(A)p.r(U)p.r(U)p.r(C)p.r(C)p.r(G)p.r(C)p.r(G)p.r(U)p.r(A)p.r(C)p.r(G)p.r(T)p.r(T)}$$$RNA1{StrandType:ss}|RNA2{StrandType:as}$	94.2%
RNA1{[s4r](C)p.[s4r](G)p.r(U)p.r(A)p.r(C)p.r(G)p.r(C)p.r(G)p.r(G)p.r(A)p.r(A)p.r(U)p.r(A)p.r(C)p.r(U)p.r(U)p.r(C)p.[s4r](G)p.[s4r](A)p.r(T)p.r(T)}|RNA2{[s4r](U)p.[s4r](C)p.r(G)p.r(A)p.r(A)p.r(G)p.r(U)p.r(A)p.r(U)p.r(U)p.r(C)p.r(C)p.r(G)p.r(C)p.r(G)p.r(U)p.r(A)p.[s4r](C)p.[s4r](G)p.r(T)p.r(T)}$$$RNA1{StrandType:ss}|RNA2{StrandType:as}$	85.3%
RNA1{m(C)p.r(U)p.m(C)p.r(C)p.m(U)p.r(U)p.m(C)p.r(A)p.m(U)p.r(U)p.m(C)p.r(C)p.m(A)p.r(G)p.m(C)p.r(C)p.m(U)p.r(A)p.m(U)p.r(T)p.r(T)}|RNA2{r(A)p.r(U)p.r(A)p.r(G)p.r(G)p.r(C)p.r(U)p.r(G)p.r(G)p.r(A)p.r(A)p.r(U)p.r(G)p.r(A)p.r(A)p.r(G)p.r(G)p.r(A)p.r(G)p.r(T)p.r(T)}$$$RNA1{StrandType:ss}|RNA2{StrandType:as}$	51%
RNA1{r(A)p.r(G)p.r(A)p.r(G)p.r(A)p.r(A)p.r(G)p.r(G)p.r(G)p.[fl2r](C)p.r(G)p.r(U)p.r(C)p.r(U)p.r(C)p.[fl2r](U)p.r(A)p.[fl2r](C)p.r(A)p.r(T)p.r(T)}|RNA2{[fl2r](U)p.r(G)p.[fl2r](U)p.r(A)p.r(G)p.r(A)p.r(G)p.r(A)p.r(C)p.r(G)p.r(C)p.r(C)p.r(C)p.r(U)p.r(U)p.r(C)p.r(U)p.r(C)p.r(U)p.r(T)p.r(T)}$$$RNA1{StrandType:ss}|RNA2{StrandType:as}$	71%
RNA1{r(C)p.m(U)p.m(A)p.r(C)p.r(C)p.r(U)p.r(U)p.r(C)p.r(U)p.r(C)p.r(C)p.r(U)p.r(C)p.r(U)p.r(U)p.r(C)p.r(U)p.r(C)p.r(C)p.r(T)p.r(T)}|RNA2{r(G)p.r(G)p.r(A)p.r(G)p.r(A)p.r(A)p.r(G)p.r(A)p.r(G)p.r(G)p.r(A)p.r(G)p.r(A)p.r(A)p.r(G)p.r(G)p.m(U)p.m(A)p.r(G)p.r(T)p.r(T)}$$$RNA1{StrandType:ss}|RNA2{StrandType:as}$	68%
RNA1{r(A)p.r(A)p.r(C)p.r(U)p.r(C)p.[fl2r](U)p.r(A)p.r(C)p.[fl2r](U)p.r(G)p.[fl2r](U)p.r(G)p.r(G)p.r(A)p.r(G)p.r(U)p.r(C)p.r(G)p.r(G)p.r(T)p.r(T)}|RNA2{r(C)p.r(C)p.r(G)p.r(A)p.r(C)p.r(U)p.r(C)p.[fl2r](C)p.r(A)p.[fl2r](C)p.r(A)p.r(G)p.[fl2r](U)p.r(A)p.r(G)p.r(A)p.r(G)p.r(U)p.r(U)p.r(T)p.r(T)}$$$RNA1{StrandType:ss}|RNA2{StrandType:as}$	65%
RNA1{r(G)p.r(U)p.r(A)p.r(U)p.r(G)p.r(A)p.r(C)p.r(C)p.r(G)p.r(A)p.r(C)p.r(U)p.r(A)p.r(C)p.r(G)p.r(C)p.r(G)p.r(U)p.r(A)p.r(T)p.r(T)}|RNA2{r(U)p.r(U)p.r(C)p.r(A)p.r(G)p.r(U)p.r(G)p.r(U)p.r(G)p.r(A)p.r(U)p.r(G)p.[una](A)p.r(C)p.r(A)p.r(C)p.r(U)p.r(U)p.r(G)p.r(T)p.r(T)}$$$RNA1{StrandType:ss}|RNA2{StrandType:as}$	74%
RNA1{r(C)p.r(U)p.r(A)p.r(A)p.r(G)p.r(G)p.r(A)p.r(C)p.r(C)p.r(U)p.r(A)p.r(A)p.r(C)p.r(A)p.r(A)p.[una](A)p.r(G)p.[una](U)p.[una](U)p.r(U)p.r(U)}|RNA2{r(A)p.r(A)p.r(C)p.r(U)p.r(U)p.r(U)p.r(G)p.r(U)p.r(U)p.r(A)p.r(G)p.r(G)p.r(U)p.r(C)p.r(C)p.r(U)p.r(U)p.r(A)p.r(G)p.r(U)p.r(U)}$$$RNA1{StrandType:ss}|RNA2{StrandType:as}$	70%
RNA1{r(A)p.r(C)p.r(G)p.r(G)p.r(C)p.r(U)p.r(C)p.r(G)p.r(C)p.[fl2r](U)p.r(A)p.r(C)p.r(C)p.r(C)p.r(U)p.r(C)p.r(G)p.r(A)p.r(C)p.r(T)p.r(T)}|RNA2{r(G)p.r(U)p.r(C)p.r(G)p.r(A)p.r(G)p.r(G)p.r(G)p.[fl2r](U)p.r(A)p.r(G)p.r(C)p.r(G)p.r(A)p.r(G)p.r(C)p.r(C)p.r(G)p.r(U)p.r(T)p.r(T)}$$$RNA1{StrandType:ss}|RNA2{StrandType:as}$	78%
RNA1{r(A)p.r(U)p.r(C)p.r(U)p.r(G)p.r(A)p.r(A)p.r(G)p.r(A)p.r(A)p.r(G)p.r(G)p.r(A)p.r(G)p.r(A)p.r(A)p.r(A)p.r(A)p.r(A)p.d(T)p.d(T)}|RNA2{r(U)p.r(U)p.r(U)p.r(U)p.r(U)p.r(C)p.r(U)p.r(C)p.r(C)p.r(U)p.r(U)p.r(C)p.r(U)p.r(U)p.r(C)p.r(A)p.r(G)p.r(A)p.r(U)p.[lna](T)p.[lna](T)}$$$RNA1{StrandType:ss}|RNA2{StrandType:as}$	93%
RNA1{r(A)p.r(C)p.r(G)p.r(U)p.m(C)p.r(A)p.r(C)p.r(C)p.r(G)p.r(A)p.r(G)p.r(G)p.r(A)p.r(G)p.r(A)p.r(A)p.r(G)p.m(U)p.m(A)p.r(T)p.r(T)}|RNA2{m(U)p.m(A)p.r(C)p.r(U)p.r(U)p.r(C)p.r(U)p.r(C)p.r(C)p.r(U)p.r(C)p.r(G)p.r(G)p.m(U)p.r(G)p.r(A)p.r(C)p.r(G)p.r(U)p.r(T)p.r(T)}$$$RNA1{StrandType:ss}|RNA2{StrandType:as}$	74%
RNA1{r(C)p.r(U)p.r(U)p.r(A)p.r(C)p.r(G)p.r(C)p.r(U)p.r(G)p.r(A)p.r(G)p.r(U)p.r(A)p.r(C)p.r(U)p.r(U)p.r(C)p.r(G)p.r(A)p.d(T)p.d(T)}|RNA2{[lna](T)p.r(C)p.r(G)p.r(A)p.r(A)p.r(G)p.r(U)p.[lna](A)p.r(C)p.r(U)p.[lna](C)p.r(A)p.r(G)p.r(C)p.r(G)p.r(U)p.[lna](A)p.r(A)p.r(G)p.[lna](T)p.[lna](T)}$$$RNA1{StrandType:ss}|RNA2{StrandType:as}$	15%
